Laboratory results published in patent publication US7612072B2, “Amorphous form of a phosphoric acid salt of a dipeptidyl peptidase-IV inhibitor” (Merck & Co., Inc., priority 2004, dated 2009).

Experiment: Solubility in water of the amorphous form
Assay type: physicochemical

- solubility in water: high solubility in water
SMILES: N[C@@H](CC(=O)N1CCn2c(nnc2C(F)(F)F)C1)Cc1cc(F)c(F)cc1F [Compound I, (2R)-4-oxo-4-[3-(trifluoromethyl)-5,6-dihydro[1,2,4]triazolo[4,3-α]pyrazin-7(8H)-yl]-1-(2,4,5-trifluorophenyl)butan-2-amine dihydrogenphosphate]
